Data reported in publication PMC6513986, “Molecular basis for heat desensitization of TRPV1 ion channels” (Nature Communications, 2019).

Assays:
mV1_651 (ANAP) = mV1_651 (ANAP) (Mus musculus, UniProt Q704Y3, T651X); experiment: Agonist activation of ANAP-incorporated channel, patch clamp; assay type: cell-based
pV1_643 (ANAP) = pV1_643 (ANAP) (Ornithorhynchus anatinus, UniProt F7A7B4, S634X)
pV1_241 (ANAP) = pV1_241 (ANAP) (Ornithorhynchus anatinus, UniProt F7A7B4); experiment: Agonist activation of ANAP-incorporated channel, patch clamp; assay type: cell-based, platypus
mV1_654 (ANAP) = mV1_654 (ANAP) (Mus musculus, UniProt Q704Y3, Y654X); experiment: as above; assay type: cell-based
platypus TRPV1 (pV1) = platypus TRPV1 (pV1) (Ornithorhynchus anatinus, UniProt F7A7B4); experiment: Agonist activation, patch clamp, HEK293T; assay type: cell-based; conditions: whole-cell, 3 mM
mV1_630 (ANAP) = mV1_630 (ANAP) (Mus musculus, UniProt Q704Y3, S630X); experiment: Agonist activation of ANAP-incorporated channel, patch clamp; assay type: cell-based
mV1_579 (ANAP) = mV1_579 (ANAP) (Mus musculus, UniProt Q704Y3, C579X); experiment: as above; assay type: cell-based
mV1_648 (ANAP) = mV1_648 (ANAP) (Mus musculus, UniProt Q704Y3, L648X); experiment: as above; assay type: cell-based
mV1_241 (ANAP) = mV1_241 (ANAP) (Mus musculus, UniProt Q704Y3, K241X); experiment: as above; assay type: cell-based
mV1_685 (ANAP) = mV1_685 (ANAP) (Mus musculus, UniProt Q704Y3, E685X); experiment: as above; assay type: cell-based
[1] = Emission peak of free ANAP at different temperatures; assay type: physicochemical; conditions: n=3
Source text: ANAP fluorescence was excited by the Ar laser with a 375/28 excitation filter, T400lp dichroic mirror, and 435LP emission filter on an inverted fluorescence microscope (Nikon TE2000-U) using a ×40 oil-immersion objective (numerical aperture (NA) 1.3). Emission spectrum of ANAP was imaged with an Acton SpectraPro 2150i spectrograph in conjunction with an Evolve 512 EMCCD camera. The emission peak value was found by fitting the spectrum with a skewed Gauss distribution.

2APB activation (mV1_651 (ANAP))	2APB activation (pV1_643 (ANAP))	2APB activation (pV1_241 (ANAP))	2APB activation (mV1_654 (ANAP))	activation of pV1 by 2-APB (platypus TRPV1 (pV1); listed as 2-APB)	activation of pV1 by 2-APB (platypus TRPV1 (pV1); listed as 2-aminoethoxydiphenyl borate)	2APB activation (mV1_630 (ANAP))	2APB activation (mV1_579 (ANAP))	2APB activation (mV1_648 (ANAP))	2APB activation (mV1_241 (ANAP))	2APB activation (mV1_685 (ANAP))	change of emission spectrum during heating [1]	SMILES
Yes	Yes	Yes	Yes	currents elicited	directly activated	Yes	Yes	Yes	Yes	Yes		NCCOB(c1ccccc1)c1ccccc1 [2APB, 2-aminoethoxydiphenyl borate]
											no change	CC(=O)c1ccc2cc(NCC(N)C(=O)O)ccc2c1 (stereo not drawn) [free ANAP, 3-(6-acetylnaphthalen-2-ylamino)-2-aminopropanoic acid]
